Consider 2 compounds from patent US4285953A, “Inhibition of biosynthesis of triglycerides by certain N-β-phenethyl-N-pyridylalkylamines” (Shell Oil Company, priority 1980, dated 1981).

This experiment has as its system enzyme prepared from pig adipose tissue (synthesis of triglycerides). Kind of experiment: Inhibition of triglyceride synthesis by enzyme preparation from pig adipose tissue (14C-glycerol-3-phosphate incorporation). Format: biochemical. As to conditions: test compound 1000 micrograms per milliliter, 5% DMSO, 8 minutes at 37° C; compared to controls without test compound; average of two animals. As for the experimental part: An enzyme was prepared by homogenizing one gram of slices from pig adipose tissue, each slice being approximately 0.3 mm thick, in onemilliliter portions of a liquid medium (Liquid A). The homogenate then was centrifuged (10.000 g×15 minutes), and the supernatant phase (the enzyme) was poured through cheesecloth to remove fat that had risen to the top of the centrifuge tubes.
Liquid A had the following composition (in water):
0.15 M potassium chloride, 1 mM ethylenediaminetetracetic acid, […] Hepes (N-2-hydroxyethylpiperazine-N'-2-ethanesulfonic acid), 1 mM DTT (dithiothreitol), pH=7.0.
A solution of the test compound (Liquid B) was prepared: 10 milligrams of test compound plus 0.5 milliliter dimethylsulfoxide (DMSO) plus 1.83 milliliters of glass-distilled water.
A premix (Liquid C) was freshly prepared before each test, from the following components: […]
0.25 milliliter of enzyme then was added. […] Ten milliliters of a 2:1 (v/v) mixture of toluene and Triton X-100 containing 0.27% New England Nuclear Omnifluor was added, and the radioactivity was determined in a liquid scintillation counter. […]
The percent inhibition by the test compound compared to the controls (no test compound) was determined.

Turning to `CC(C)(Cc1ccc(Cl)cc1)NCCCC(c1ccccc1)c1ccccn1.O=C(O)/C=C\C(=O)O` (centres unmarked) [Compound 2, N-(2-(4-chlorophenyl)-1,1-dimethylethyl)-delta-phenyl-2-pyridinebutanamine, maleic acid salt], the “Percent Inhibition” value came to 93.

Turning to `Cc1ccc(CC(C)NCCCC(c2ccccc2)c2ccccn2)cc1.O=C(O)/C=C\C(=O)O` (centres unmarked) [Compound 1, N-(1-methyl-2-(4-methylphenyl)ethyl)-delta-phenyl-2-pyridinebutanamine, maleic acid salt], the “Percent Inhibition” value is on record as 97.
